Experiments:
[1] = test system: Canis familiaris; test: (§1) Oral bioavailability in Beagle dog at 10 mg/kg; assay type: ADME, organism-based, Canis lupus familiaris; details: in vivo
[2] = Clearance in cynomolgus monkey at 1 mg/kg, iv; assay type: ADME, organism-based, Macaca fascicularis; set-up: dose 1 mg/kg, route intravenous; details: in vivo
[3] = AUC (0 to 24 hrs) in cynomolgus monkey at 1 mg/kg, iv; assay type: ADME, organism-based, Macaca fascicularis; set-up: time < 24 hr, dose 1 mg/kg, route intravenous; details: plasma
[4] = target: Interleukin-1 receptor-associated kinase 4 (Homo sapiens, UniProt Q9NWZ3); test: Inhibition of IRAK4
[5] = test system: Canis familiaris; test: AUC (0 to 24 hrs) in Beagle dog at 1 mg/kg, iv; assay type: ADME, organism-based, Canis lupus familiaris, Plasma; set-up: time < 24 hr, dose 1 mg/kg, route intravenous; details: in vivo
[6] = Oral bioavailability in cynomolgus monkey at 30 mg/kg; assay type: ADME, organism-based, Macaca fascicularis; details: in vivo
[7] = Clearance in Beagle dog at 1 mg/kg, iv; assay type: ADME, organism-based, Canis lupus familiaris; set-up: dose 1 mg/kg, route intravenous; details: in vivo
[8] = test system: Mus musculus; test: Inhibition of Aurora B-mediated histone H3 phosphorylation in nude mouse xenografted with human A2780 cells at 100 mg/kg, po administered as single dose measured 2 hrs; assay type: functional; details: A2780, 2 h
[9] = test system: Canis familiaris; test: (§2) AUC (0 to 24 hrs) in Beagle dog at 10 mg/kg, po; assay type: ADME, organism-based, Canis lupus familiaris, Plasma; set-up: time < 24 hr, dose 10 mg/kg, route oral; details: in vivo, 24 h
[10] = target: Ribosomal protein S6 kinase alpha-3 (Homo sapiens, UniProt P51812); test: Inhibition of RSK2
[11] = target: Tyrosine-protein kinase Lck (Homo sapiens, UniProt P06239); test: Inhibition of LCK
[12] = target: Tyrosine-protein kinase JAK2 (Homo sapiens, UniProt O60674); test: Inhibition of JAK2
[13] = Clearance in Beagle dog at 0.3 mg/kg, iv; assay type: ADME, organism-based, Canis lupus familiaris; set-up: dose 0.3 mg/kg, route intravenous; details: in vivo
[14] = as §1; assay type: ADME, organism-based, Canis lupus familiaris; details: beagle, in vivo
[15] = Oral bioavailability in cynomolgus monkey at 10 mg/kg; assay type: ADME, organism-based, Macaca fascicularis; details: in vivo
[16] = AUC (0 to 24 hrs) in Beagle dog at 0.3 mg/kg, iv; assay type: ADME, organism-based, Canis lupus familiaris; set-up: time < 24 hr, dose 0.3 mg/kg, route intravenous; details: plasma
[17] = Oral AUC in cynomolgus monkey at 10 mg/kg, po; assay type: ADME, organism-based, Macaca fascicularis; set-up: dose 10 mg/kg, route oral; details: in vivo
[18] = AUC in CD1 mouse at 50 mg/kg, po; assay type: ADME, organism-based; set-up: dose 50 mg/kg, route oral; details: plasma
[19] = Oral AUC in Sprague-Dawley rat at 30 mg/kg, po; assay type: ADME, organism-based; set-up: dose 30 mg/kg, route oral; details: in vivo
[20] = Oral AUC in Beagle dog at 10 mg/kg, po; assay type: ADME, organism-based, Canis lupus familiaris; set-up: dose 10 mg/kg, route oral; details: in vivo
[21] = AUC (0 to 24 hrs) in cynomolgus monkey at 0.3 mg/kg, iv; assay type: ADME, organism-based, Macaca fascicularis; set-up: time < 24 hr, dose 0.3 mg/kg, route intravenous; details: plasma
[22] = Clearance in cynomolgus monkey at 0.3 mg/kg, iv; assay type: ADME, organism-based, Macaca fascicularis; set-up: dose 0.3 mg/kg, route intravenous; details: in vivo
[23] = as §2; assay type: ADME, organism-based, Canis lupus familiaris, Plasma; set-up: time < 24 hr, dose 10 mg/kg, route oral; details: beagle, plasma

Interleukin-1 receptor-associated kinase 4, sequence (Q9NWZ3 whole entry): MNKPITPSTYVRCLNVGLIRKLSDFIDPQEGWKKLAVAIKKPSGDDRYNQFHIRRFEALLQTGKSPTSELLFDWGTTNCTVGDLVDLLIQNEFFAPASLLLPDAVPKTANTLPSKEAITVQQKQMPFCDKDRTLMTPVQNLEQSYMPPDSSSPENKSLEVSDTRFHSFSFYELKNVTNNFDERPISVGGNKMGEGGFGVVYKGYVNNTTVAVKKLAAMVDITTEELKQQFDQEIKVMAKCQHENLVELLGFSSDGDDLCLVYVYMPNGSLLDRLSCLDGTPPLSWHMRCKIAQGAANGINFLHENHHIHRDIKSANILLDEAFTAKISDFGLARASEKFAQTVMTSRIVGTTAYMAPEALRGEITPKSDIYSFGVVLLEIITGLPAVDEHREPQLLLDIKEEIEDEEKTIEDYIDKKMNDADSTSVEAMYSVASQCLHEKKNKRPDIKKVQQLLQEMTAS
Tyrosine-protein kinase JAK2, sequence (O60674 whole entry): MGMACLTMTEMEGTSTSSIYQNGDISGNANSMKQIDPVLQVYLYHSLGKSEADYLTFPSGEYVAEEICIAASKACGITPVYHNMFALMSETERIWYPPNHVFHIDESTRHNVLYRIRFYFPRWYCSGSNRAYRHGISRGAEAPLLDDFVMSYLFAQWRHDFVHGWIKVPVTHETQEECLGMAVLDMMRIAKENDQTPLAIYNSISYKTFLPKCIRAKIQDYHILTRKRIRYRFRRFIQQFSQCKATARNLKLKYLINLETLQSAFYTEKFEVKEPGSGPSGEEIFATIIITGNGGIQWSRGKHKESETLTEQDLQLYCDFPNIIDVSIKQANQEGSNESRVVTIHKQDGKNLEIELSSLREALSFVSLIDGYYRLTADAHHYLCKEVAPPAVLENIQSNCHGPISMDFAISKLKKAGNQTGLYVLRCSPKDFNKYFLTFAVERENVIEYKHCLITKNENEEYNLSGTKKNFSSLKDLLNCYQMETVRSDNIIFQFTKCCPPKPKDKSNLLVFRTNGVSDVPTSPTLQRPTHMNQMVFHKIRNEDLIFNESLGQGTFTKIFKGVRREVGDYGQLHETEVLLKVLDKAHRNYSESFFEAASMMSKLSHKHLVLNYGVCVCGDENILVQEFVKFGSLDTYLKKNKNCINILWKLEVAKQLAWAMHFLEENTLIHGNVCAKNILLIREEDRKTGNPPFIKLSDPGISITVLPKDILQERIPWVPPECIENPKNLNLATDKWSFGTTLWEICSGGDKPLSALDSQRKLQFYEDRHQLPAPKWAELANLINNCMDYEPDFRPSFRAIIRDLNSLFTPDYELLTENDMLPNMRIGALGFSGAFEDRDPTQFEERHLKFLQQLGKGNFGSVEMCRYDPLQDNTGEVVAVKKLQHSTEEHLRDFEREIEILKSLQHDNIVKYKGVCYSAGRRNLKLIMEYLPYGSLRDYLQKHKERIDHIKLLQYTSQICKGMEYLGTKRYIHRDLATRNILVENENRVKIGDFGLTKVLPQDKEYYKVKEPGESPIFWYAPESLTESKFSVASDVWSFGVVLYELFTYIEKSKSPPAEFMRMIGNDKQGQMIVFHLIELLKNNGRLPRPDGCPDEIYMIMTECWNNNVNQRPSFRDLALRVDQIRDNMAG
Ribosomal protein S6 kinase alpha-3, sequence (P51812 whole entry): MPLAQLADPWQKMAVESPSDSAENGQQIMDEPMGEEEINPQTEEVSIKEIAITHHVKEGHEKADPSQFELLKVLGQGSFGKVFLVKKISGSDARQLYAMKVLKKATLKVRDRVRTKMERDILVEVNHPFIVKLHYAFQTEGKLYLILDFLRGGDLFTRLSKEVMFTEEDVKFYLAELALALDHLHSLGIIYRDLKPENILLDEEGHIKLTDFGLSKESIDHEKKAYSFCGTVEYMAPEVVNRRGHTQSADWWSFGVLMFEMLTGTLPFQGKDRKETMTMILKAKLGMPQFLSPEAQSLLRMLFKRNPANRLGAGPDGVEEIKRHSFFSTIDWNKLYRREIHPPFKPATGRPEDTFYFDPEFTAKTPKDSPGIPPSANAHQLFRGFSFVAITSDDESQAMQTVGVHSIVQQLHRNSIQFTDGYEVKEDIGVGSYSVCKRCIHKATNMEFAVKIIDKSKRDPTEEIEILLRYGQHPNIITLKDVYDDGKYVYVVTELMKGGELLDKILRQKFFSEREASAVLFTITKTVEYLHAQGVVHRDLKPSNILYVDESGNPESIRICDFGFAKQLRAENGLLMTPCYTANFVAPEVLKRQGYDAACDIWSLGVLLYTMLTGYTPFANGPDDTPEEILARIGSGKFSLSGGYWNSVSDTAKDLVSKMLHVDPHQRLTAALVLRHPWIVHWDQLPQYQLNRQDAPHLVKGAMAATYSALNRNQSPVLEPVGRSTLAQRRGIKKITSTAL
Tyrosine-protein kinase Lck, sequence (P06239 whole entry): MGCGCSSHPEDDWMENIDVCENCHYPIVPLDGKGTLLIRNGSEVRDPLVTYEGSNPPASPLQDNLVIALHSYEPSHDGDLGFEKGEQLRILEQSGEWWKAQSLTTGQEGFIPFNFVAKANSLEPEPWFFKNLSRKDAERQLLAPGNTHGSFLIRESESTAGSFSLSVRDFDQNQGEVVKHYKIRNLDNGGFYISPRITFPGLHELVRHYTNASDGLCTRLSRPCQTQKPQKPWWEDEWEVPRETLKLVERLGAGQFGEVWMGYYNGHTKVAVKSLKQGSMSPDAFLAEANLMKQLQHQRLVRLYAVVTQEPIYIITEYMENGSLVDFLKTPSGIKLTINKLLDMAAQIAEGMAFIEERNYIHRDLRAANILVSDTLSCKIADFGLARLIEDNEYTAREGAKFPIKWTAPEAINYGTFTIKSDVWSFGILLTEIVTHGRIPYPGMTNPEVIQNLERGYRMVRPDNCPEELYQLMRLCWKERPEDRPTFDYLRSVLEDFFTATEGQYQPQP

Compound: Cl.[2H]C([2H])(c1cc(Nc2nc(C)cn3c(-c4cn[nH]c4)cnc23)sn1)N1CCC(F)(F)C1
- F [1]: 33%
- clearance [2]: 4.2 mL/min/kg
- AUC(0-t) at 24 h [3]: 9.5 µM·h
- IC50 [4]: 640 nM
- AUC [5]: 9 µM·h
- bioavailability [6]: 2%
- clearance [7]: 4.5 mL/min/kg
- inhibition in vivo at 100 mg/kg [8]: 83%
- AUC [9]: 3.1 µM·h

Compound: CCN(Cc1cc(Nc2nc(C)cn3c(-c4cn[nH]c4)cnc23)sn1)C(C)(C)CO
- IC50 [10]: > 100 nM
- IC50 [11]: < 1 nM
- IC50 [12]: > 100 nM

Compound: Cc1cn2c(-c3cn[nH]c3)cnc2c(Nc2cc(CN3CCC(F)(F)C3)ns2)n1.Cl
- clearance [13]: 31 mL/min/kg
- bioavailability [14]: 20%
- bioavailability [15]: 2%
- AUC(0-t) at 24 h [16]: 0.4 µM·h
- AUC [17]: 0.8 µM·h
- AUC [18]: 9.4 µM·h
- AUC [19]: 6.9 µM·h
- AUC [20]: 2.6 µM·h
- IC50 [4]: 1000 nM
- AUC(0-t) at 24 h [21]: 0.7 µM·h
- clearance [22]: 18 mL/min/kg
- bioavailability [6]: 2%
- AUC(0-t) at 24 h [23]: 2.6 µM·h
